Test results from patent US6376497B1, “Antifungal azole derivatives having a fluorinated vinyl group and process for preparing same” (Korea Research Institute of Chemical Technology, priority 1999, dated 2002).

What was measured:
Assay in all cases: In vitro antifungal activity, microbroth dilution MIC
Type in all cases: cell-based
[1] = test system: Aspergillus furnigatus B. 19119; settings: for Minimal inhibitory concentration(MIC), A furnigatus B. 19119: RPMI-1640, 35° C., no growth observed
In short: (§1)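 Broth microdilution adapted from NCCLS M27, in RPMI-1640 with 0.165 M MOPS, pH 7.0. Yeast or mould inoculum at 2×10^3 CFU/ml was mixed 1:1 with DMSO-derived compound solutions (200 to 0.10 μg/ml before mixing) and incubated at 35 °C for 4 to 48 h. MIC was the concentration showing no growth.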

[2] = test system: Aspergillus niger A. 16404; settings: for Minimal inhibitory concentration(MIC), A. niger A. 16404: RPMI-1640, 35° C., no growth observed
In short: as §1

[3] = test system: Candida albicans A. 10231; settings: 4 to 48 hours; for Minimal inhibitory concentration(MIC), C. albicans A. 10231: RPMI-1640, 35° C., no growth observed; for Minimal inhibitory concentration (MIC): C. albicans A. 10231, RPMI-1640, 35° C.
In short: as §1

Candida albicans C1-2 = settings: 4 to 48 hours; for Minimal inhibitory concentration(MIC), C. albicans C1-2: RPMI-1640, 35° C., no growth observed; for Minimal inhibitory concentration (MIC): C. albicans C1-2, RPMI-1640, 35° C.
In short: as §1

[4] = test system: Candida albicans IFO. 1385; settings: 4 to 48 hours; for Minimal inhibitory concentration(MIC), C. albicans IFO. 1385: RPMI-1640, 35° C., no growth observed
In short: as §1

Candida krusei K. 11655 = settings: 4 to 48 hours; for Minimal inhibitory concentration(MIC), C. krusei K. 11655: RPMI-1640, 35° C., no growth observed
In short: as §1

[5] = test system: Candida parapsitosis A. 7330; settings: 4 to 48 hours; for Minimal inhibitory concentration(MIC), C. parapsitosis A. 7330: RPMI-1640, 35° C., no growth observed
In short: as §1

[6] = test system: Candida pseudotropicalis K. 11658; settings: 4 to 48 hours; for Minimal inhibitory concentration(MIC), C. pseudotropicalis K. 11658: RPMI-1640, 35° C., no growth observed
In short: as §1

[7] = test system: Candida tropicalis A. 13803; settings: 4 to 48 hours; for Minimal inhibitory concentration(MIC), C. tropicalis A. 13803: RPMI-1640, 35° C., no growth observed
In short: as §1

[8] = test system: Cryptococcus neoformans A. 34144; settings: for Minimal inhibitory concentration(MIC), Cry. neoformans A. 34144: RPMI-1640, 35° C., no growth observed
In short: as §1

[9] = test system: Cryptococcus neoformans B. 42419; settings: 4 to 48 hours; for Minimal inhibitory concentration(MIC), Cry. neoformans B. 42419: RPMI-1640, 35° C., no growth observed
In short: as §1

[10] = test system: Cryptococcus neoformans IFM. 40092; settings: for Minimal inhibitory concentration(MIC), Cry. neoformans IFM. 40092: RPMI-1640, 35° C., no growth observed
In short: as §1

[11] = test system: Torulopsis glabrata B. 16205; settings: 4 to 48 hours; for Minimal inhibitory concentration(MIC), T. glabrata B. 16205: RPMI-1640, 35° C., no growth observed
In short: as §1

[12] = test system: Trichophyton mentagrophytes A. 9129; settings: for Minimal inhibitory concentration(MIC), T. mentagrophytes A. 9129: RPMI-1640, 35° C., no growth observed
In short: as §1

[13] = test system: Trichophyton mentagrophytes B. 32663; settings: for Minimal inhibitory concentration(MIC), T. mentagrophytes B. 32663: RPMI-1640, 35° C., no growth observed
In short: as §1

Row | Minimal inhibitory concentration(MIC), A furnigatus B. 19119 ([1]; 4 to 48 hours) [µg/mL] | Minimal inhibitory concentration(MIC), A. niger A. 16404 ([2]; 4 to 48 hours) [µg/mL] | Minimal inhibitory concentration(MIC), C. albicans A. 10231 [3] [µg/mL] | Minimal inhibitory concentration(MIC), C. albicans C1-2 (Candida albicans C1-2) [µg/mL] | Minimal inhibitory concentration(MIC), C. albicans IFO. 1385 [4] [µg/mL] | Minimal inhibitory concentration(MIC), C. krusei K. 11655 (Candida krusei K. 11655) [µg/mL] | Minimal inhibitory concentration(MIC), C. parapsitosis A. 7330 [5] [µg/mL] | Minimal inhibitory concentration(MIC), C. pseudotropicalis K. 11658 [6] [µg/mL] | Minimal inhibitory concentration(MIC), C. tropicalis A. 13803 [7] [µg/mL] | Minimal inhibitory concentration(MIC), Cry. neoformans A. 34144 ([8]; 4 to 48 hours) [µg/mL] | Minimal inhibitory concentration(MIC), Cry. neoformans B. 42419 [9] [µg/mL] | Minimal inhibitory concentration(MIC), Cry. neoformans IFM. 40092 ([10]; 4 to 48 hours) [µg/mL] | Minimal inhibitory concentration(MIC), T. glabrata B. 16205 [11] [µg/mL] | Minimal inhibitory concentration(MIC), T. mentagrophytes A. 9129 ([12]; 4 to 48 hours) [µg/mL] | Minimal inhibitory concentration(MIC), T. mentagrophytes B. 32663 ([13]; 4 to 48 hours) [µg/mL] | Minimal inhibitory concentration (MIC) [3] [µg/mL] | Minimal inhibitory concentration (MIC) (Candida albicans C1-2) [µg/mL] | Compound | other results
1 | >100 | >100 | >100 | >100 | 1.56 | 1.56 | 1.56 | 1.56 | >100 | 0.78 | 0.78 | 0.20 | >100 | 6.25 | 1.56 |  |  | FC(=C(c1ccc2c(c1)OCO2)C(F)(F)F)N1CCN(c2ccc(OCC3COC(Cn4ccnc4)(c4ccc(Cl)cc4Cl)O3)cc2)CC1 (mixture of isomers) [Ex. 132] | 
2 |  |  |  |  |  |  |  |  |  |  |  |  |  |  |  | 12.5 | 12.5 | CCc1ccc(C=C(F)OCC2COC(Cn3ccnc3)(c3ccc(F)cc3F)O2)cc1 (mixture of isomers) [Ex. 39] | Minimal inhibitory concentration (MIC) ([1]; A furnigatus B. 19119, RPMI-1640, 35° C., 4 to 48 hours): 12.5 µg/mL; Minimal inhibitory concentration (MIC) ([2]; A. niger A. 16404, RPMI-1640, 35° C., 4 to 48 hours): 50.0 µg/mL; Minimal inhibitory concentration (MIC) ([4]; C. albicans IFO. 1385, RPMI-1640, 35° C.): 0.39 µg/mL; Minimal inhibitory concentration (MIC) (Candida krusei K. 11655; C. krusei K. 11655, RPMI-1640, 35° C.): 25.0 µg/mL; Minimal inhibitory concentration (MIC) ([5]; C. parapsitosis A. 7330, RPMI-1640, 35° C.): 12.5 µg/mL; Minimal inhibitory concentration (MIC) ([6]; C. pseudotropicalis K. 11658, RPMI-1640, 35° C.): 12.5 µg/mL; Minimal inhibitory concentration (MIC) ([7]; C. tropicalis A. 13803, RPMI-1640, 35° C.): 25.0 µg/mL; Minimal inhibitory concentration (MIC) ([8]; Cry. neoformans A. 34144, RPMI-1640, 35° C., 4 to 48 hours): 1.56 µg/mL; Minimal inhibitory concentration (MIC) ([9]; Cry. neoformans B. 42419, RPMI-1640, 35° C.): 1.56 µg/mL; Minimal inhibitory concentration (MIC) ([10]; Cry. neoformans IFM. 40092, RPMI-1640, 35° C., 4 to 48 hours): 0.20 µg/mL; Minimal inhibitory concentration (MIC) ([11]; T. glabrata B. 16205, RPMI-1640, 35° C.): 6.25 µg/mL; Minimal inhibitory concentration (MIC) ([12]; T. mentagrophytes A. 9129, RPMI-1640, 35° C., 4 to 48 hours): 6.25 µg/mL; Minimal inhibitory concentration (MIC) ([13]; T. mentagrophytes B. 32663, RPMI-1640, 35° C., 4 to 48 hours): 1.56 µg/mL
3 | 25.0 | 12.5 |  |  | 6.25 | >100 | >100 | 100 | 25.0 | 3.13 | 3.13 | 0.78 | 25.0 | 3.13 | 3.13 | 6.25 | 6.25 | FC(=Cc1ccc(Cl)cc1)OCC1COC(Cn2cncn2)(c2ccc(Cl)cc2Cl)O1 (mixture of isomers) [Ex. 76] | 
4 |  |  | >100 | >100 | 0.39 | 6.25 | 3.13 | 1.56 | >100 |  | 0.39 |  | >100 |  |  |  |  | COc1ccc(C(=C(F)N2CCN(c3ccc(OCC4COC(Cn5ccnc5)(c5ccc(F)cc5F)O4)cc3)CC2)C(F)(F)F)cc1 (mixture of isomers) [Ex. 144] | Minimal inhibitory concentration(MIC), A furnigatus B. 19119 [1]: 100 µg/mL; Minimal inhibitory concentration(MIC), A. niger A. 16404 [2]: >100 µg/mL; Minimal inhibitory concentration(MIC), Cry. neoformans A. 34144 [8]: 3.13 µg/mL; Minimal inhibitory concentration(MIC), Cry. neoformans IFM. 40092 [10]: 0.39 µg/mL; Minimal inhibitory concentration(MIC), T. mentagrophytes A. 9129 [12]: 12.5 µg/mL; Minimal inhibitory concentration(MIC), T. mentagrophytes B. 32663 [13]: 1.56 µg/mL
